Measured values taken from patent US20030166213A1, “Methods for identifying compounds that modulate disorders related to nitric oxide/ cGMP-dependent protein kinase signaling” (priority 2000, published 2003).
Entries after “also recorded” stand apart in the source; their conditions may differ.

System: Drosophila melanogaster
Assay: Effects of methylphenidate on rest (sleep) in flies, Drosophila Activity Monitoring System
Type: in vivo
Details: wild-type Canton-S virgin female flies; 0.5 mg/ml methylphenidate dissolved in the food; transferred two hours before lights-off; rest over the following 14 hours vs baseline; p<0.05
Method: Wild-type Canton-S (CS) flies were placed into a 50 ml vial containing yeast, dark corn syrup and agar food. Each colony was housed at 25° C. with a relative humidity of 50% in a Forma Scientific incubator. The flies were maintained on a 12:12 light/dark cycle with “lights-on” commencing at 8:00 am and “lights-off” commencing at 8:00 pm to yield darkness. Virgin females were collected and maintained in 50 ml vials for one day. During the second day, flies were individually placed into glass tubes (65 mm in length, 5 mm I.D.) containing about lomm of fresh food and the tubes were placed into the Drosophila Activity Monitoring System (Trikinetics, Waltham, Mass.). The flies remained undisturbed for the following 48 hours. The amount and distribution of rest was evaluated during the third day to ensure that the flies had adapted to the apparatus as previously described in Shaw et. al., Science 287:1834-1837 (2000). On day 4, two hours before lights-off, flies were transferred to fresh glass tubes containing only standard laboratory food or to tubes with 0.5 mg/ml methylphenidate that had been dissolved in the food. The amount and distribution of rest during the following 14 hours was then evaluated.

COC(=O)C(c1ccccc1)C1CCCCN1 (stereo not shown) [methylphenidate]
amount and distribution of rest: rest was significantly reduced compared to baseline; also recorded: significant and substantial decrease in rest
